Measured values taken from PubChem BioAssay AID192 (DTP/NCI, 2004).
“And” between values parts separate entries of the source, which are not always exact repeats. Equal entries are not always repeated. Toxic doses and inconclusive results are not listed. The calls were made as follows: active = survival T/C of 150% or more; inactive = T/C below 125% in these data.

Tested on: BDF1 mice, B16 melanoma ip, median survival T/C
Assay: NCI In Vivo Anticancer Drug Screen. Data for tumor model B16 Melanoma (intraperitoneal) in B6D2F1 (BDF1) mice
Conditions: endpoint: median survival time, higher = longer survival
Summary of the method: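 Compounds were tested in mice carrying transplantable tumors. Survival or tumor size was recorded, and each value is the treated-group measurement (T) divided by that of the vehicle-treated control group (C).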

[1] = dose: 50.0 mg/kg/injection, schedule: Q01DX009 (ip), vehicle: saline with Tween-80
[2] = dose: 100.0 mg/kg/injection, schedule: Q01DX009 (ip), vehicle: saline with Tween-80
[3] = dose: 200.0 mg/kg/injection, schedule: Q01DX009 (ip), vehicle: saline with Tween-80
[4] = dose: 6.25 mg/kg/injection, schedule: Q01DX009 (ip), vehicle: saline
[5] = dose: 12.5 mg/kg/injection, schedule: Q01DX009 (ip), vehicle: saline
[6] = dose: 25.0 mg/kg/injection, schedule: Q01DX009 (ip), vehicle: saline
[7] = dose: 50.0 mg/kg/injection, schedule: Q01DX009 (ip), vehicle: saline
[8] = dose: 100.0 mg/kg/injection, schedule: Q04DX003 (ip), vehicle: saline with Tween-80
[9] = dose: 200.0 mg/kg/injection, schedule: Q04DX003 (ip), vehicle: saline with Tween-80
[10] = dose: 400.0 mg/kg/injection, schedule: Q04DX003 (ip), vehicle: saline with Tween-80
[11] = dose: 1.56 mg/kg/injection, schedule: Q01DX009 (ip), vehicle: water
[12] = dose: 3.13 mg/kg/injection, schedule: Q01DX009 (ip), vehicle: water
[13] = dose: 6.25 mg/kg/injection, schedule: Q01DX009 (ip), vehicle: water
[14] = dose: 100.0 mg/kg/injection, schedule: Q01DX009 (ip), vehicle: Klucel (hydroxypropylcellulose) (HPC)
[15] = dose: 200.0 mg/kg/injection, schedule: Q01DX009 (ip), vehicle: Klucel (hydroxypropylcellulose) (HPC)
[16] = dose: 400.0 mg/kg/injection, schedule: Q01DX009 (ip), vehicle: saline with Tween-80
[17] = dose: 50.0 mg/kg/injection, schedule: Q01DX009 (ip), vehicle: Klucel (hydroxypropylcellulose) (HPC)
[18] = dose: 100.0 mg/kg/injection, schedule: Q04DX003 (ip), vehicle: Klucel (hydroxypropylcellulose) (HPC)
[19] = dose: 12.5 mg/kg/injection, schedule: Q01DX009 (ip), vehicle: Klucel (hydroxypropylcellulose) (HPC)
[20] = dose: 25.0 mg/kg/injection, schedule: Q01DX009 (ip), vehicle: Klucel (hydroxypropylcellulose) (HPC)

Measured: T/C

CCC(C)C1NC(=O)C(NC(=O)c2c3[nH]c4c(C(=O)NC5C(=O)NC(C(C)CC)C(=O)N6CCCC6C(=O)N(C)CC(=O)N(C)C(C(C)C)C(=O)OC5C)ccc(C)c4oc-3c(C)c(=O)c2=O)C(C)OC(=O)C(C(C)C)N(C)C(=O)CN(C)C(=O)C2CCCN2C1=O (stereo unspecified)
inactive: dose: 0.05 mg/kg/injection, schedule: Q01DX009 (ip), vehicle: water 98 % of control | dose: 0.1 mg/kg/injection, schedule: Q01DX009 (ip), vehicle: water 102 % of control | dose: 0.2 mg/kg/injection, schedule: Q01DX009 (ip), vehicle: water 97 % of control | dose: 0.4 mg/kg/injection, schedule: Q01DX009 (ip), vehicle: water 103 % of control | dose: 0.8 mg/kg/injection, schedule: Q01DX009 (ip), vehicle: water 100 % of control | dose: 1.6 mg/kg/injection, schedule: Q01DX009 (ip), vehicle: water 101 % of control

CN(C)c1ccc(/C=C2\C=Cc3ccccc32)cc1
inactive: [1] 92 % of control | [2] 89 % of control | [3] 92 % of control

COC(=O)c1cccc(C)c1O
inactive: [1] 100 % of control | [2] 112 % of control

C=CCN(CC=C)CCN(CC)CC
inactive: [4] 93 % of control | [5] 94 % of control | [6] 94 % of control | [7] 91 % of control

CC(C)CC(NC(=O)C(CC(C)C)NC(=O)OCc1ccccc1)C(=O)O (stereo unspecified)
inactive: [1] 97 % of control | [2] 101 % of control | [3] 92 % of control

Cc1ccc(C)c(NC(=O)c2ccc(Cl)cc2Cl)c1
inactive: [8] 100 % of control | [9] 94 % of control | [10] 88 % of control

CCCCCCCCCCCCCCCC(=O)N(CCCN(CC)CC)C(C)CCCN(CC)CC (stereo unspecified)
inactive: dose: 0.78 mg/kg/injection, schedule: Q01DX009 (ip), vehicle: water 103 % of control | dose: 1.56 mg/kg/injection, schedule: Q01DX009 (ip), vehicle: Klucel (hydroxypropylcellulose) (HPC) 110 % of control | [11] 104 % of control | dose: 3.13 mg/kg/injection, schedule: Q01DX009 (ip), vehicle: Klucel (hydroxypropylcellulose) (HPC) 102 % of control | [12] 104 % of control | dose: 6.25 mg/kg/injection, schedule: Q01DX009 (ip), vehicle: Klucel (hydroxypropylcellulose) (HPC) 86 % of control and 97 % of control | [13] 90 % of control

CCC(CCCN(CC)CCc1ccccc1)OC(=O)c1cc(OC)c(OC)c(OC)c1 (stereo unspecified)
inactive: dose: 4.68 mg/kg/injection, schedule: Q01DX009 (ip), vehicle: saline 104 % of control | dose: 9.37 mg/kg/injection, schedule: Q01DX009 (ip), vehicle: saline 108 % of control | dose: 18.75 mg/kg/injection, schedule: Q01DX009 (ip), vehicle: saline 103 % of control | dose: 37.5 mg/kg/injection, schedule: Q01DX009 (ip), vehicle: saline 100 % of control | dose: 75.0 mg/kg/injection, schedule: Q01DX009 (ip), vehicle: saline 91 % of control

CCOc1ccc(NC(=O)c2ccccc2Cl)cc1
inactive: [14] 93 % of control | [15] 112 % of control | dose: 400.0 mg/kg/injection, schedule: Q01DX009 (ip), vehicle: Klucel (hydroxypropylcellulose) (HPC) 93 % of control

C=CC(=O)O
inactive: dose: 3.13 mg/kg/injection, schedule: Q01DX009 (ip), vehicle: saline 112 % of control | [4] 114 % of control | [5] 114 % of control

Cn1c(CC#N)c(C[N+](C)(C)C)c2ccccc21
inactive: dose: 1.25 mg/kg/injection, schedule: Q01DX009 (ip), vehicle: saline with Tween-80 104 % of control | dose: 2.5 mg/kg/injection, schedule: Q01DX009 (ip), vehicle: saline with Tween-80 86 % of control | dose: 5.0 mg/kg/injection, schedule: Q01DX009 (ip), vehicle: saline with Tween-80 100 % of control

CN(C)N=Nc1ccc(C(=O)O)cc1
inactive: [6] 113 % of control | [7] 119 % of control

CCOC(=O)c1cc(-c2ccc(Cl)cc2)nc2c(Cl)cc(Cl)cc12
inactive: [2] 101 % of control | [3] 89 % of control | [16] 88 % of control

O=C(O)c1cc2oc3ccccc3c2cc1O
inactive: [17] 116 % of control | [14] 110 % of control

CC[P+](c1ccccc1)(c1ccccc1)c1ccccc1
inactive: dose: 1.25 mg/kg/injection, schedule: Q04DX003 (ip), vehicle: saline 97 % of control | dose: 2.5 mg/kg/injection, schedule: Q04DX003 (ip), vehicle: saline 93 % of control | dose: 5.0 mg/kg/injection, schedule: Q04DX003 (ip), vehicle: saline 95 % of control

Cc1noc(/N=C/c2ccccc2)c1C
inactive: [18] 108 % of control | dose: 200.0 mg/kg/injection, schedule: Q04DX003 (ip), vehicle: Klucel (hydroxypropylcellulose) (HPC) 105 % of control | dose: 400.0 mg/kg/injection, schedule: Q04DX003 (ip), vehicle: Klucel (hydroxypropylcellulose) (HPC) 108 % of control

CC(=O)N(C(C)=O)c1ccc(N=Nc2ccccc2C)cc1C
inactive: [19] 94 % of control | [20] 117 % of control | [17] 100 % of control | [14] 100 % of control | [15] 87 % of control

CCc1cccc2ccccc12
inactive: dose: 75.0 mg/kg/injection, schedule: Q01DX009 (ip), vehicle: Klucel (hydroxypropylcellulose) (HPC) 118 % of control | dose: 150.0 mg/kg/injection, schedule: Q01DX009 (ip), vehicle: Klucel (hydroxypropylcellulose) (HPC) 121 % of control | dose: 300.0 mg/kg/injection, schedule: Q01DX009 (ip), vehicle: Klucel (hydroxypropylcellulose) (HPC) 106 % of control

CCCC1CC[N-]CC1.CCCC1CC[N-]CC1.CCCC1CC[N-]CC1.CCCC1CC[N-]CC1.CS(C)=O.CS(C)=O.[Cl-].[Cl-].[Cl-].[Cl-].[Cl][Rh][Cl].[Rh+3]
inactive: [11] 105 % of control | [12] 107 % of control | [13] 120 % of control | dose: 25.0 mg/kg/injection, schedule: Q01DX009 (ip), vehicle: water 124 % of control

CCC(=O)O[C@H]1CC[C@H]2[C@@H]3[C@@H](C)CC4=CC(=O)CC[C@]4(C)[C@H]3CC[C@]12C
inactive: dose: 25.0 mg/kg/injection, schedule: Q01DX009 (ip), vehicle: saline with Tween-80 98 % of control | [1] 91 % of control | [2] 87 % of control and 89 % of control | [8] 100 % of control | [9] 100 % of control | [10] 86 % of control

CN(C)CC/C=C1\c2ccccc2CN(C)c2ccccc21
inactive: [4] 102 % of control | [5] 107 % of control | [6] 94 % of control | [7] 99 % of control

Cc1cc(C)c(NC(=O)Nc2ccccc2C)c(C)c1
inactive: dose: 25.0 mg/kg/injection, schedule: Q04DX003 (ip), vehicle: Klucel (hydroxypropylcellulose) (HPC) 102 % of control | dose: 50.0 mg/kg/injection, schedule: Q04DX003 (ip), vehicle: Klucel (hydroxypropylcellulose) (HPC) 97 % of control | [18] 90 % of control

Cc1c(Cl)cccc1NC(=O)Nc1ccc(Cl)c(Cl)c1
inactive: [19] 105 % of control | [20] 92 % of control | [17] 91 % of control

CC(N)C(=O)NC(CO)C(=O)O (stereo unspecified)
inactive: [2] 109 % of control | [3] 97 % of control | [16] 97 % of control
